Values of other authors, collected in patent US8058304B2, “Merged ion channel modulating compounds and uses thereof” (Cardiome Pharma Corp., priority 2004, dated 2011).

Test system: patients with left ventricular dysfunction after recent and remote myocardial infarction
Conditions: optically pure d-sotalol; SWORD study, Lancet 1996

CC(C)NC[C@@H](O)c1ccc(NS(C)(=O)=O)cc1 [d-sotalol]
increased mortality compared to placebo: 65%
